Measured values: BindingDB's records for doi:10.1021/jm800328v (Yale University, 2008)

Target: T1, ATP phosphoribosyltransferase (Mycobacterium tuberculosis (strain ATCC 25618 / H37Rv), UniProt P9WMN1)
T1 sequence (P9WMN1 whole entry): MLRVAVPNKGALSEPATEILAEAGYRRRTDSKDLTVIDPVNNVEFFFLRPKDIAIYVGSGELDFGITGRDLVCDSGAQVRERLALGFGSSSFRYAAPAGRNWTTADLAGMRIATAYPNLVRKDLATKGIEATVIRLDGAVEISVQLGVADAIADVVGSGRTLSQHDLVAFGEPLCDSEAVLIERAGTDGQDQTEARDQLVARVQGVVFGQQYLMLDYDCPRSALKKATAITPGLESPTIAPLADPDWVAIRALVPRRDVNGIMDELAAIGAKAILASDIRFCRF
Assay: Enzyme Inhibition Assay
Settings: pH 8.5; 22 °C
Experimental: Inhibition activity was determined using an assay that followed the production of PR-ATP spectrophotometrically. Enzymatic reaction was initiated by adding the substrate PRPP to reaction mixtures containing HisG enzyme and test compounds, and absorbance of product was monitored at 290 nm for 5 min until it formed a plateau.

| SMILES | IC50 |
| --- | --- |
| O=C(CSc1nnc(-c2ccccc2)c(-c2ccccc2)n1)Nc1nccs1 [2-[(5,6-diphenyl-1,2,4-triazin-3-yl)sulfanyl]-N-(1,3-thiazol-2-yl)acetamide] | 4 µM |
| COc1ccc(COC(=O)C2=C(C)N=C3CC(c4cccs4)CC(=O)C3C2c2cccs2)cc1 (configuration not stated) [(4-methoxyphenyl)methyl 2-methyl-5-oxo-4,7-bis(thiophen-2-yl)-1,4,5,6,7,8-hexahydroquinoline-3-carboxylate] | 10 µM |
